Results from patent US20170281624A1, “COMBINATION THERAPIES OF ALK INHIBITORS” (Novartis AG, priority 2014, published 2017).

Tests used:
[1] = tested on: PD-L1 (CD274) in H3122 cells; experiment: PD-L1 (CD274) expression by TaqMan real time PCR and flow cytometry; type: cell-based, human
Method: This example evaluates the effects of selected therapeutic agent LDK378 on PD-L1 (CD274) modulation. LDK378 was examined by real time PCR and flow cytometry on PD-L1 levels.
TaqMan RT PCR assays were developed to detect changes of expression levels of PD-L1 (CD274) in cell lines and xenograft tumors. mRNA was isolated from frozen cell pellets or tumor fragments using the Qiagen RNeasy Mini kit. Isolated RNA was frozen at −80° C. RNA quality was checked and RNA was quantified using a 2100 Agilent Bioanalyzer following the protocol for the Agilent RNA 6000 Nano Kit. cDNA was prepared using a High Capacity RNA-to cDNA Kit (Applied Biosystems).
Real-time PCR reactions were carried out in 20 μl total volume, including 10 μl of Universal PCR master mix (Applied Biosystems), 1 μl of human PD-L1 (CD274) probe/primer set (Applied Biosystems), and 8 μl of cDNA. Each sample was run in triplicate. The amount of cDNA produced from 25-50 ng of RNA in the reverse transcription reaction was used in each PCR reaction. Due to difference in mRNA levels between PD-L1 and GAPDH, the two real-time PCR reactions were done in separate tubes using same amount of cDNA. The real-time PCR reaction was run on the C1000 Thermal Cycle (BioRad) with the cycle program as follows: a 10 minute incubation at 95° C. followed by 40 cycles of 95° C. for 15 seconds and 60° C. for 1 minute. […]

[2] = ceritinib trials; cited from earlier work
ALK-positive NSCLC = experiment: Clinical study of LDK378 in ALK-positive NSCLC patients, 750 mg dose group; type: in vivo, human

Compound: Cc1cc(Nc2ncc(Cl)c(Nc3ccccc3S(=O)(=O)C(C)C)n2)c(OC(C)C)cc1C1CCNCC1 [LDK378, 5-chloro-N^2-(2-isopropoxy-5-methyl-4-(piperidin-4-yl)phenyl)-N^4-[2-(propane-2-sulfonyl)-phenyl]-pyrimidine-2,4-diamine]
- PD-L1 mRNA ([1]; H3122 (NSCLC with ALK translocation) in vitro, FIG. 1): Inhibition
- PD-L1 levels on tumor cells ([1]; real time PCR and flow cytometry): Significant inhibition
- immune-related adverse events [2]: have not been frequently reported
- median progression-free survival (PFS) (ALK-positive NSCLC; 750 mg, 53.3% of the patients censored): 8.21 months
- median time to response (ALK-positive NSCLC; 144 patients with confirmed CR or PR, 750 mg): 6.1 weeks
- overall response rate (ORR) (ALK-positive NSCLC; 246 ALK-positive NSCLC patients, 750 mg dose group (RD)): 58.5%
- ORR (ALK-positive NSCLC; ALK inhibitor-naïve patients): 66.3%
- patients who achieved a response within 12 weeks (ALK-positive NSCLC; among the 144 patients with confirmed CR or PR, 750 mg): 86.1%
- estimated median duration of response (DOR) (ALK-positive NSCLC; investigator assessment, 750 mg): 9.69 months
- ORR (ALK-positive NSCLC; patients treated with a prior ALK inhibitor): 54.6%
